Results reported in patent US7829560B2, “1,4-disubstituted naphthalenes as inhibitors of P38 MAP kinase” (Arqule, Inc., priority 2004, dated 2010).
Several values for one entry are separate records, joined by “and”; a condition that tells them apart may be missing. Equal values may be shown once.

Biological target: T1, p38α (Homo sapiens, UniProt Q16539)
T1 construct: p38 MAP Kinases are recombinant human full-length proteins with an amino-terminal GST fusion; GST (N); purchased Upstate Biotechnology Inc; host or cells: E. coli
Assay: p38 MAP Kinase assay: inhibition of ATF2 phosphorylation, ELISA
Type: biochemical
Conditions: for inhibition at 10 µM: substrate ATF2, read-out: [ENZ] P38 ALPHA, PCT INH, ELISA (10 uM;ATF2) (Percent); for IC50: ATF2 phosphorylation, read-out: [ENZ] P38 ALPHA, IC50, ELISA
Text: Compounds of the invention are screened for the ability to inhibit ATF2 phosphorylation by p38 MAP Kinase in vitro. The ability of compounds to inhibit ATF2 phosphorylation in this in vitro assay is correlated with the inhibition of p38 MAP Kinase and TNFα expression in vivo, and is therefore an indicator of potential in vivo therapeutic activity (Raingeaud, J., et al, J. Biol. Chem., 270: 7420-7426, 1995, Brinkman, M. N., et al, J. Biol. Chem. 274: 30882-30886, 1999 and Fuchs, S. Y. et al, J. Biol. Chem. 275: 12560-12564, 2000).
Materials: All kinases and the substrate ATF2 are acquired from Upstate Biotechnology Inc. p38 MAP Kinases are recombinant human full-length proteins with an amino-terminal GST fusion, expressed in and purified from E. coli. ATF2 is a GST fusion protein containing amino acids 19-96 of human ATF2 expressed in E. coli. All proteins are aliquoted and stored at −80° C.
Methods: p38 MAP Kinase assays are performed using an assay buffer containing 25 mM HEPES, pH 7.5, 10 mM MgCl2, 2 mM DTT, 20 mM β-glycerophosphate, 0.1 mM Na3VO4, 40 μM ATP and 1.25 μM of ATF2 and in the absence or presence of 1% human serum albumin, Method I and II, respectively, with 0.4-6 ng of protein depending on the kinase used. Compounds are serially diluted in DMSO and 2 μL of test compound at 25× final concentration is used. The vehicle control receives DMSO only. Test compounds are pre-incubated with 20 μl of enzyme in kinase buffer (25 mM HEPES, pH 7.5, 10 mM MgCl2, 2 mM DTT, 20 mM β-glycerophosphate, 0.1 mM Na3VO4 in the absence or presence of 1% human serum albumin, Method I and II, respectively) at room temperature for 15 minutes. […] The reactions are incubated for 30 minutes at 37° C. and terminated by the addition of 18 μl of 200 mM EDTA. An ELISA method (I or II) is used to measure the phosphorylation of ATF2 at Thr 69. Method I: 96-well high binding plates (Corning 3369) are coated with 50 μl of kinase reaction for 1 hour at 37° C. The coated plates are washed with 200 μl washing buffer (25 mM Tris HCl, pH 8.3, 192 mM glycine, 0.1% SDS and 0.05% Tween-20) three times. The plates are then washed three times with SuperBlock in TBS (Pierce, 37535). After blocking, plates are incubated with 50 μl of rabbit anti-phospho-ATF2 antibody (Cell Signaling, 9221L, 1:500) for 30 minutes at 37° C. Plates are washed three times with washing buffer prior to incubation with 50 μl HRP-conjugated goat anti-rabbit antibody (Cell Signaling, 7074, 1:500) for 30 minutes at 37° C. Plates are then washed three times with washing buffer before incubation with 50 μl of Ultra TMB-ELISA (Pierce, 34028) for 8 minutes at room temperature. Finally, 50 ul of phosphoric acid (1 M) is added to stop reactions and plate absorbance is read at 450 nm on a SpectraMax 250 plate reader. Method II: 96-well high binding plates (Corning 3369) are coated with 400 ng of monoclonal antibody against GST-tag (Cell signaling) in 100 μl containing sodium borate (pH 8.3) for 90 minutes at 37° C. The plates are washed with 200 μl washing buffer (25 mM Tris HCl, pH 7.2, 150 mM NaCl and Tween-20) three times and blocked with 200 μl of 5% nonfat milk for 30 minutes at room temperature. The plates are washed three times with washing buffer, 50 μl of stopped kinase reaction are added to each well and incubated for 80 minutes at 37° C. The plates are washed three times with 200 μl washing buffer, and the plates are incubated with 50 μl of rabbit anti-phospho-ATF2 antibody (Cell Signaling, 9221L, 1:500) for 30 minutes at 37° C. Plates are washed three times with washing buffer prior to incubation with 50 μl HRP-conjugated goat anti-rabbit antibody (Cell Signaling, 7074, 1:500) for 30 minutes at 37° C. Plates are washed three times with washing buffer before incubation with 50 μl of Ultra TMB-ELISA (Pierce, 34028) for 25 minutes at room temperature. Finally, 50 μl of phosphoric acid (1 M) is added to stop reactions and plate absorbance is read at 450 nm on a SpectraMax 250 plate reader. […]

T1 sequence (Q16539 whole entry, the tested form may be a part): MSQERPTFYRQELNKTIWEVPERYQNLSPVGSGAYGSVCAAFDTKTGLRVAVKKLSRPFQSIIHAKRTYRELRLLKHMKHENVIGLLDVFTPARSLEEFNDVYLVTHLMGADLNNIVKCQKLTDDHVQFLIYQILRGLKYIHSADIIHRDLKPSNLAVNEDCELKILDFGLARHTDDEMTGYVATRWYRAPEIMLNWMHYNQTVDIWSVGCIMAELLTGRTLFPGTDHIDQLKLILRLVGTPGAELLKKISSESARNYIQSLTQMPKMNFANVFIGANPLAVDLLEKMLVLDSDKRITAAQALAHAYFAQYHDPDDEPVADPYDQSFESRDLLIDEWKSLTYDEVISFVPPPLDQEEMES

Row | inhibition at 10 µM [%] | IC50 | Compound
1 | 6 |  | O=C(Nc1ccc(OCCN2CCOCC2)c2ccccc12)C1=CC=CC(C(F)(F)F)C1Cl (stereo not shown) [Compound B81]
2 | 38 |  | C[C@@H]1CN(CCOc2ccc(NC(=O)c3ccnc(N4CCOCC4)c3)c3ccccc23)C[C@H](C)O1 [Compound B23]
3 | 12.5 |  | O=C(Nc1ccc(OCCN2CCCCC2)c2ccccc12)c1ccnc(N2CCOCC2)c1 [Compound B22]
4 | 15 | > 100 µM | Cc1cc(C(=O)Nc2ccc(OCCN3CCOCC3)c3ccccc23)cc(N2CCc3ccccc3C2)n1 [Compound B150]
5 |  | > 10 µM | CC(C)(C)C1CCC(Oc2cc(F)cc(C(=O)Nc3ccc(OCCN4CCOCC4)c4ccccc34)c2)CC1 (stereo not shown) [Compound B216]
6 | 15 | > 10 µM | O=C(Nc1ccc(OCCN2CCOCC2)c2ccccc12)c1cccc(/C=C/c2ccccc2)c1 [Compound B98]
7 | 10 |  | CN(C)CCN(C)c1cc(F)cc(C(=O)Nc2ccc(OCCN3CCOCC3)c3ccccc23)c1 [Compound B68]
8 | 15 | > 100 µM | COc1cc(-c2cccc(C(=O)Nc3ccc(OCCN4CCOCC4)c4ccccc34)c2)cc(OC)c1OC [Compound B112]
9 | 39 | > 100 µM | O=C(Nc1ccc(OCCN2CCOCC2)c2ccccc12)c1cccc(-c2cc(Cl)cc(Cl)c2Cl)c1 [Compound B120]
10 | 83.5 | 0.436 µM and 0.306 µM | O=C1CN(CCOc2ccc(NC(=O)c3cc(F)cc(N4CCCCC4)c3)c3ccccc23)CCN1 [Compound B164, 3-Fluoro-N-{4-[2-(3-oxo-piperazin-1-yl)-ethoxy]-naphthalen-1-yl}-5-piperidin-1-yl-benzamide]
11 | 68 | 1.63 µM | O=C(Nc1ccc(OCCN2CCOCC2)c2ccccc12)c1cccc(-c2cc(F)cc(F)c2)c1 [Compound B103]
12 | 33 | > 100 µM | O=C(Nc1ccc(OCCN2CCOCC2)c2ccccc12)c1cccc(N2CCCCC2)n1 [Compound B142]
13 | 34 |  | CC1CCCN(c2cccc(C(=O)Nc3ccc(OCCN4CCOCC4)c4ccccc34)n2)C1 (stereo not shown) [Compound B69]
14 | 1 |  | Cc1cc(C(=O)Nc2ccc(OCCN3CCOCC3)c3ccccc23)nn1C [Compound B79]
15 | 28 |  | O=C(Nc1ccc(OCCN2CCOCC2)c2ccccc12)c1cc(F)cc(C(F)(F)F)c1 [Compound B77]
16 | 9 |  | CCn1nc(C)cc1C(=O)Nc1ccc(OCCN2CCOCC2)c2ccccc12 [Compound B80]
17 | 21 |  | CN1CCN(CCOc2ccc(NC(=O)c3ccc(-n4ccc(C(F)(F)F)n4)cc3)c3ccccc23)CC1 [Compound B9]
18 | 36 |  | O=C(Nc1ccc(OCCN2CCOCC2)c2ccccc12)c1ccnc(N2Cc3ccccc3C2)c1 [Compound B132]
19 | 34 | > 10 µM | Cc1ccc(-c2cccc(C(=O)Nc3ccc(OCCN4CCOCC4)c4ccccc34)c2)cc1 [Compound B93]
20 | 11.5 |  | CN1CCN(CCOc2ccc(NC(=O)c3ccc(CN4CCS(=O)(=O)CC4)cc3)c3ccccc23)CC1 [Compound B13]
21 |  | > 10 µM | O=C(Nc1ccc(OCCN2C(=O)CCC2=O)c2ccccc12)c1cc(F)cc(N2CCOCC2)c1 [Compound B221]
22 | 15.5 |  | CCN(C)c1cccc(C(=O)Nc2ccc(OCCN3CCOCC3)c3ccccc23)n1 [Compound B148]
23 | 8 |  | CCN(C)c1cc(C(=O)Nc2ccc(OCCN3CCOCC3)c3ccccc23)cc(C)n1 [Compound B157]

Row | inhibition at 10 µM [%] | IC50 | Compound
24 | 50 | 5.06 µM | COc1ccc(Cl)cc1-c1cccc(C(=O)Nc2ccc(OCCN3CCOCC3)c3ccccc23)c1 [Compound B111]
25 | 11 |  | O=C(Nc1ccc(OCCN2CCOCC2)c2ccccc12)c1cccc(N2CCC(CO)CC2)n1 [Compound B145]
26 | 24 |  | O=C(Nc1ccc(OCCN2CCSCC2)c2ccccc12)c1ccc(-n2cccn2)cc1 [Compound B11]
27 | 71 | 1.14 µM | O=C(Nc1ccc(OCCN2CCOCC2)c2ccccc12)c1cccc(-c2cccc(Cl)c2)c1 [Compound B94]
28 | 30.5 |  | O=C(Nc1ccc(OCCN2CCSCC2)c2ccccc12)c1ccc(CN2CCS(=O)(=O)CC2)cc1 [Compound B17]
29 |  | 12.8 µM | O=C(Nc1ccc(OCc2ccco2)c2ccccc12)c1cc(F)cc(N2CCOCC2)c1 [Compound B223]
30 | 29 | > 10 µM | Cc1cc(C)cc(-c2cccc(C(=O)Nc3ccc(OCCN4CCOCC4)c4ccccc34)c2)c1 [Compound B113]
31 | 52 | 4.07 µM | CCOc1ccccc1-c1cccc(C(=O)Nc2ccc(OCCN3CCOCC3)c3ccccc23)c1 [Compound B109]
32 | 19.5 |  | O=C(Nc1ccc(OCCN2CCOCC2)c2ccccc12)c1ccnc(N2CCC(N3CCCCC3)CC2)c1 [Compound B129]
33 | 20 | > 100 µM | O=C(Nc1ccc(OCCN2CCOCC2)c2ccccc12)c1cccc(N2CCCCCCC2)n1 [Compound B135]
34 | 32 | > 100 µM | CC1CCN(c2cccc(C(=O)Nc3ccc(OCCN4CCOCC4)c4ccccc34)n2)CC1 [Compound B143]
35 | 11 | > 100 µM | O=C(Nc1ccc(OCCN2CCOCC2)c2ccccc12)c1cccc(-c2cccc(OCc3ccccc3)c2)c1 [Compound B119]
36 | 10 |  | O=C(Nc1ccc(OCCN2CCOCC2)c2ccccc12)c1cccc(C(F)(F)F)c1 [Compound B73]
37 | 23.5 |  | O=C(Nc1ccc(OCCN2CCOCC2)c2ccccc12)c1ccnc(N2CCC(N3CCCC3)CC2)c1 [Compound B125]
38 | 21 |  | O=C(Nc1ccc(OCCN2CCCCC2)c2ccccc12)c1ccnc(Cl)c1 [Compound B7]
39 | 27.5 |  | CCOC(=O)N1CCN(CCOc2ccc(NC(=O)c3ccc(CN4CCS(=O)(=O)CC4)cc3)c3ccccc23)CC1 [Compound B16]
40 | 46 |  | O=C(Nc1ccc(OCCN2CCOCC2)c2ccccc12)c1cccc(NCc2ccc(F)cc2)c1 [Compound B170]
41 | 16.5 |  | C[C@@H]1CN(CCOc2ccc(NC(=O)c3ccc(-n4cccn4)cc3)c3ccccc23)C[C@H](C)O1 [Compound B12]
42 | 7.5 |  | CN1CCN(CCOc2ccc(NC(=O)c3ccnc(Cl)c3)c3ccccc23)CC1 [Compound B6]
43 | 7.5 |  | Cc1cccc(C)c1N1CCN(c2cccc(C(=O)Nc3ccc(OCCN4CCOCC4)c4ccccc34)n2)CC1 [Compound B146]
44 | 0 |  | Cc1cc(C(=O)Nc2ccc(OCCN3CCOCC3)c3ccccc23)cc(N2CCC(N3CCCC3)CC2)n1 [Compound B152]
45 | -36 |  | O=C(Nc1ccc(OCCN2CCOCC2)c2ccccc12)c1cccc(N2CCSC2)n1 [Compound B138]
46 | 31.5 |  | O=C(Nc1ccc(OCCN2CCOCC2)c2ccccc12)c1ccnc(N2CCc3ccccc3C2)c1 [Compound B121]
